{"source": "patent US20030216427A1", "about": "“Amine derivatives for the treatment of apoptosis” (priority 2000, published 2003)", "key": {"[1]": {"tested_on": "male Wistar rats", "experiment": "Kainate-induced neuronal cell death in the rat hippocampus", "type": "in vivo", "conditions": "dose of 30 mg/kg (i.v.)", "protocol": "The compounds of the present invention were also subjected to the model of kainate-induced neuronal cell death in the rat hippocampus. The method used was adapted from Gelowitz, Paterson, Pharmacol.Biochem.Behav., 62: 255-62 (1999), Magyar et al. Transm.Suppl., 52: 109-23 (1998) as well as Sperk et al, Brain Re., 338: 289-95 (1985). […] According to a preferred embodiment, the tested compounds display a protection rate of at least 25%, preferably of at least 40% at a dose of 30 mg/kg (i.v.)"}, "[2]": {"tested_on": "gerbils", "experiment": "Global ischemia in gerbils (in vivo)", "design": "species or system gerbil", "conditions": "30 mg/kg, 5 min carotid occlusion", "protocol": "The ability of the amine compounds of formula I to protect cell death during a stroke event may be assessed using the following protocol:\nAnesthesia: halothane or isoflurane (0.5-4%).\nSheaving of the gorge and incision of the skin.\nThe common carotid arteries (left and right) are freed from tissue.\nOcclusion of the arteries using Bulldog microclamps during 5 min.\nDisinfection of the surgery plan (Betadine®) and suture of the skin (Autoclip® or Michel's hooks).\nStabulation of the animals under heating lamp until awake.\nStabulation of the animals in the animalry in individual cages.\n7 days after ischemia (Decapitation or overdose of pentobarbital).\nFreezing of the brain in isopentane (−20° C.)\nSlicing of the hippocampus using a cryo-microtome (20 μm).\nStaining with cresyl violet and/or TUNEL method\nEvaluation of the lesions (in CA1/CA2 subfields of the hippocampus)\nGerhard & Boast score modified or\nCell counting in the CA1/CA2\nMicrodissection of the cerebral structures\nParameters determined: DNA fragmentation, lactate, calcium penetration.\nAnalytical methods: ELISA, colorimetry, enzymology, radiometry.\nAdministration of the test article or the vehicle: 15 min after reperfusion (5-10 min after the recovery of the anesthesia).\n50 animals : 5 groups of 10 (group A: control, groups B-D : test article at 3 doses and group E : reference compound (ketamine 3×120 mg/kg, ip or Orotic acid 3×300 mg/kg, ip)."}, "[3]": {"tested_on": "male Wistar rats", "experiment": "Transient model of focal cerebral ischemia (transient middle cerebral artery occlusion)", "type": "in vivo, rat", "conditions": "dose of 1 mg/kg (i.v.)", "description": "The compounds of the present invention were also subjected to the transient model of focal cerebral ischemia. The method used was adapted from Nagasawa and Kogure, Stroke, 20, 1037, 1989 as well as Zea Longa, Weinstein, Carlon and Cummins, Stroke, 20, 84, 1989."}, "[4]": {"tested_on": "Sympathetic neurons from superior cervical ganglia (SCG) of newborn rats", "experiment": "Sympathetic neuron culture and survival assay", "type": "cell-based, rat", "conditions": "compound at 10 μM; 24 hours after cell death induction by anti NGF antibody, MTT", "protocol": "Cell death is induced at day 4 after plating by exposing the culture to medium containing 10 µg/ml of anti NGF antibody (Boehringer Mannheim Corp., Indianapolis, Ind.) and no NGF or arabinosine, in the presence or absence of amino derivatives according to formula I. 24 hours after cell death induction, determination of cell viability is performed by incubation of the culture for 1 hour, at 37° C. in 0.5 mg/ml of 3-(4,5-dimethyl-thiazol-2-yl)2,5 diphenyl tetrazolium bromide (MTT). After incubation in MTT cells are re-suspended in DMSO, transferred to a 96 MTT plate and cell viability is evaluated by measuring optical density at 590nm."}, "[5]": {"molecular_target": "T1, recombinant Bax (Homo sapiens, UniProt Q07812)", "T1 construct": "Bax-α lacking 20 amino acids at the COOH-terminus; GST (cleaved yes); His; made in house; host or cells: Escherichia coli", "T1 sequence (Q07812 1-172 limits assumed)": "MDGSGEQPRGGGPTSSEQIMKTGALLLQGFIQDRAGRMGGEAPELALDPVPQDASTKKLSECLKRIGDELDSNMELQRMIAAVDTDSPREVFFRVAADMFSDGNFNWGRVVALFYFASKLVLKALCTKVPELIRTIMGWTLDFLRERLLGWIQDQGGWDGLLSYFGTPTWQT", "experiment": "In vitro assay for cytochrome c release (mouse liver mitochondria incubated with recombinant Bax)", "type": "biochemical", "conditions": "compound at a concentration of 10 μM, 200 nM recombinant Bax", "description": "Hunan Bax-α lacking 20 amino acids at the COOH-terminus is expressed as a GST fusion protein or a His-tagged protein in Escherichia coli, and the protein is purified from the soluble cell fraction. In brief, the GST-Bax fusion protein is applied to a glutathione-Sepha-rose column, and Bax was released by cleavage with thrombin (0.6U/mL). Bax is subsequently purified on heparin-Sepharose, followed by fast protein liquid chromatography (FPLC) Mono Q. His-tagged Bax is purified on a Ni-nitriloacetic acid-agarose column followed by FPLC MonoQ:\nMitochondria are isolated from mouse liver cells by differential centrifugation Cells are broken with a dounce homogenizer and the suspension is centrifuged at 2,000 g in an Eppendorf centrifuge at 4° C. This procedure is repeated until almost all the cells are broken. Supernatants from each step are pooled before centrifugation at 13,000 g at 4° C. for 10 min. […]\nMitochondria (30 μg) from mouse liver are incubated with 200 nM recombinant Bax in the presence of various compounds (5 μM) in 200 μL of KCl buffer for 20 min at 30° C. and are then centrifuged for 4 min at 13,000 g at 4° C. […] Antigen-antibody complexes are detected using horseradish peroxidase-conjugated goat anti-rabbit IgG and enhance chemi-luminescence detection reagents. The cytochrome c bands are scanned and quantified using a Bio-Rad (GS-700 Imaging Densitometer)."}, "[6]": {"tested_on": "Bid-induced Bax activation", "experiment": "Release of cytochrome c triggered by Bid-induced Bax activation (mitochondria isolated from HeLa cells)", "type": "biochemical", "conditions": "compound at a concentration of 5 μM, 10 nM recombinant Bid", "protocol": "Concerning the Bid-induced activation of Bax leading to mitochondrial Cytochrome C release, it is referred to the description of Martinou et al. in The Journal of Cell Biology, Vol. 144, No. 5, Mar. 8, 1999, pages 891-901 as well as Eskes, Desagher, Antonsson and Martinou in Molecular and Cellular Biology, February 2000, p. 929-935, Vol. 20, No. 3. Mitochondria isolated from HeLa cells are incubated for 15 min at 30° C. in 100 μl of KCl buffer in the presence or absence of 10 nM recombinant Bid. […] Following incubation, mitochondria were centrifuged for 5 min at 13000 g at 4° C. and the supernatant is collected for cytochrome c analysis. Cytochrome c is detected by Western blotting. The cytochrome c bands are scanned and quantified using a Bio-Rad (GS-700 Imaging Densitometer)."}}}
{"smiles": "CCCCCCCCCCCCC(=O)N1CCCC[C@H]1C(=O)NCCCCCCN", "note": "[Example 1, (S)-1-Tridecanoyl-piperidine-2-carboxylic acid (6-amino-hexyl)-amide]", "values": [{"measurement": "protection rate", "setting": "[1]", "result": "about 50%"}, {"measurement": "protection rate of cell survival", "setting": "[2]", "result": "about 45%"}, {"measurement": "decrease in the cortex infarct volume", "setting": "[3]", "result": "about 56%"}]}
{"smiles": "CCCCCCCCCCCCC(=O)N1CCCC[C@@H]1C(=O)NCCCCCCN", "note": "[Example 2, (R)-N-(6-aminohexyl)-1-tridecanoylpiperidine-2-carboxamide]", "values": [{"measurement": "neuronal survival rate", "setting": "[4]", "result": "about 41%"}]}
{"smiles": "CCCCCCCCCCCCC(=O)N1CCC[C@H]1C(=O)NCCCCCCN", "note": "[Example 7, (S)-N-(6-aminohexyl)-1-tridecanoylpyrrolidine-2-carboxamide]", "values": [{"measurement": "inhibition at 10 µM", "setting": "[5]", "result": "~88", "unit": "%"}]}
{"smiles": "CCCCCCCCCCCCC(=O)N(C)[C@H](C(=O)NCCCCCCN)C(C)C", "note": "[Example 22, (S)-N-(1-{[(6-aminohexyl)amino]carbonyl)-2-methylpropyl)-N-methyltridecanamide]", "values": [{"measurement": "inhibition of the cytochrome c release", "setting": "[6]", "result": "about 95%"}]}
{"smiles": "CCCCCCCCCCCCC(=O)N1CCC[C@@H]1C(=O)NCCCCCN", "note": "[Example 139, (R)-N-(5-aminopentyl)-1-tridecanoylpyrrolidine-2-carboxamide]", "values": [{"measurement": "protection rate of cell survival", "setting": "[2]", "result": "~55", "unit": "%"}]}
